From patent US7704696B2, “Screening of compounds for OCTN2 transporter activity” (XenoPort, Inc., priority 2005, dated 2010)
One block for each molecule: values may come before it.

How the values were obtained:
hOCTN2 [1] = target: T1, hOCTN2 (Homo sapiens, UniProt O76082); experiment: hOCTN2 competition uptake assay (3H-carnitine uptake into CHO-TREx-hOCTN2 cells); assay type: cell-based; parameters: expressed in transfected cells; host or cells: CHO-TREx cells (CHO-TREx-OCTN2 inducible cell line)
T1 sequence (O76082 1-557): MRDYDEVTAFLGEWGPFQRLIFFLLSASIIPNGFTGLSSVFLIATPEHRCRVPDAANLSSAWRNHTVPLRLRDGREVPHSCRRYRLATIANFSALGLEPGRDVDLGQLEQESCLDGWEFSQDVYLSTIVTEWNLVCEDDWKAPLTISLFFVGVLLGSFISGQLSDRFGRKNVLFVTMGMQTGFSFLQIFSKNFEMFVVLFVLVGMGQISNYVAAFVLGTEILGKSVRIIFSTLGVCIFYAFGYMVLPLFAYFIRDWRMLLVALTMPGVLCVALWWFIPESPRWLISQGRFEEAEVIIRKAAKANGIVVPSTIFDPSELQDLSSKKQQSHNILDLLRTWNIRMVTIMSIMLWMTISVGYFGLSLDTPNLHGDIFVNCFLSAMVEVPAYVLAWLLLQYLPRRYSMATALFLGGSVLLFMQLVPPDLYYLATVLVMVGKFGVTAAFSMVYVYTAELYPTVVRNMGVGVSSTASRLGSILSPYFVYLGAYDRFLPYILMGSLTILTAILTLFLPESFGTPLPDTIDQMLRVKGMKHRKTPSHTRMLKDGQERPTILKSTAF
Protocol: A modified competition uptake assay was developed to determine the ability of a test compound(s) to inhibit the uptake of radiolabeled substrates into CHO-TREx-hOCTN2 cells induced to over-express hOCTN2. The results are stated as affinities (IC50).
The competition uptake assay was prepared as follows: Compounds were prepared for assay by diluting a 100 mM stock concentration (in DMSO) to the appropriate working concentration. Typically, seven-point dose response curves were prepared starting at a final assay concentration of 1 mM and carrying out three-fold dilutions. […]
Scintillation fluid (200 μl) (Optiphase Supermix (Perkin Elmer) was added to each well, and the plate was covered with a 96-well adhesive plate cover and placed on a shaker for 10 minutes. The plates were counted on a 96-well plate scintillation counter for 60 sec/well. The data were analyzed using a sigmoidal dose response curve-fitting program (Prism, GraphPad, Inc, San Diego, Calif.; equation: one-site competition).
FIG. 7 depicts the results of a competition experiment using CHO-TREx-OCTN2 cells. ^3H-carnitine was used as the substrate and unlabeled carnitine was used as the competitor. […] Non-specific uptake was determined by measuring the uptake into cells not induced to express the transporter (“no tet”). […]

hOCTN2 [2] = target: T1, hOCTN2; experiment: Oocyte uptake assay, oocytes injected with OCTN2 cRNA; assay type: cell-based; parameters: expressed in transfected cells; host or cells: Xenopus oocytes injected with OCTN2 cRNA; conditions: Xenopus oocytes
hOCTN2 [3] = target: T1, hOCTN2; experiment: hOCTN2 direct uptake assay (LC-MS-MS, CHO-TREx-hOCTN2 cells); assay type: cell-based; parameters: expressed in transfected cells; host or cells: CHO-TREx cells (CHO-TREx-OCTN2 inducible cell line); conditions: CHO-TREx-hOCTN2 cells induced to express hOCTN2, specific uptake
Protocol: (§1) A modified direct uptake assay was developed to determine the ability of test compounds to be transported into CHO-TREx cells induced to over-express hOCTN2. Four concentrations (bracketing the affinity as measured by competition assays) per compound were routinely tested. Non-specific uptake was determined by measuring the uptake into cells not induced to express the transporter (“no tet”).
(§2) The direct uptake assays were prepared as follows: Compounds were prepared for assay by diluting a 100 mM stock concentration (in DMSO or water, depending on compound solubility) to the appropriate working concentration. Typically, four concentrations bracketing the IC50 were tested. The highest test concentration for each compound was made in an Eppendorf tube and diluted into HBSS. The samples were robustly vortexed and centrifuged for 10 minutes at 13,200 rpm to spin down any precipitate. The supernatant from these samples (˜150 μl/well) was carefully removed and placed into six wells of row A (cmpd 1: A1-6; cmpd 2: A7-12) or row E (cmpd 3: E1-6; cmpd 4: E7-12) of a 96-well polypropylene “compound” plate. Three additional 2-fold dilutions were made in the subsequent rows (B-D or […]) in HBSS. […]

PgP = target: T2, PgP (Homo sapiens, UniProt P08183); experiment: Transwell monolayer efflux assay, MDCK cells with TREx-PgP; assay type: cell-based
T2 construct: expressed in transfected cells; host or cells: MDCK cells
T2 sequence (P08183 whole entry): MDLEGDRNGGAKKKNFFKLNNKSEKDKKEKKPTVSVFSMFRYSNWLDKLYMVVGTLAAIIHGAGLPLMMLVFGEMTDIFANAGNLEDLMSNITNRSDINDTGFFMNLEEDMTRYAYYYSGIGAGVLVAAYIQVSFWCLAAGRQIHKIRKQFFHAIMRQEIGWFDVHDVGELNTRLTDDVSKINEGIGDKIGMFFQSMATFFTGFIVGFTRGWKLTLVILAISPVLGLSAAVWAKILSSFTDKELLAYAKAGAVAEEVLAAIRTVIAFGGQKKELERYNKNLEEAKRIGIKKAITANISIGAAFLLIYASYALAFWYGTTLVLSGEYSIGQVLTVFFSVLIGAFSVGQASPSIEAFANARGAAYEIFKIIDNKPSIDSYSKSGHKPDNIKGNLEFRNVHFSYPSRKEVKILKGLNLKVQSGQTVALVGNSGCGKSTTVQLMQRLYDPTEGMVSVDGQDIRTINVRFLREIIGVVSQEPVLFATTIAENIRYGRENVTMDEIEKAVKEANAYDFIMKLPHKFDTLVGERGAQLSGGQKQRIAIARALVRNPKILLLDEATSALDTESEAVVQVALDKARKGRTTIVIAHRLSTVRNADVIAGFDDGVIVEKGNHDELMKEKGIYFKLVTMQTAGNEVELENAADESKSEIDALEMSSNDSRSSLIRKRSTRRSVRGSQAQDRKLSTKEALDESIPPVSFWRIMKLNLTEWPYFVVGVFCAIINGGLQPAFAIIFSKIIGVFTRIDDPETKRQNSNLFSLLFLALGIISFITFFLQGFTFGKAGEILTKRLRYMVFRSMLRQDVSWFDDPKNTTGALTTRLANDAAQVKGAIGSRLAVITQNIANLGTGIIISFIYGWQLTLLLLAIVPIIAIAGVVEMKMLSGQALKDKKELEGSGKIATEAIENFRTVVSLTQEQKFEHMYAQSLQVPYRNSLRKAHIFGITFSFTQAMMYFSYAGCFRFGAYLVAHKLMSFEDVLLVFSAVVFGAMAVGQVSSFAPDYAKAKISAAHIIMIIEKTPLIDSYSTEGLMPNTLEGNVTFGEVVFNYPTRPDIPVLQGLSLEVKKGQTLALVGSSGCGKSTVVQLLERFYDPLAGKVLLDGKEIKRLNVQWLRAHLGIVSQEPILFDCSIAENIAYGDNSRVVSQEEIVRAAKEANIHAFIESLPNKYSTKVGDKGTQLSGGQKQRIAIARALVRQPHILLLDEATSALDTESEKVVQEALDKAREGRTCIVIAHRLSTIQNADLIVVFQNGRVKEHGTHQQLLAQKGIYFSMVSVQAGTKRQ
Protocol: Transwell monolayer efflux assays can be performed by transfecting MDCK cells with the tetracycline-inducible TREx-PgP expression vector. The cells optionally can be transfected with a nucleic acid encoding the transporter of interest. The transfected cells are seeded on polycarbonate filter membranes in transwell dishes and grown for 3-5 days, yielding a polarized monolayer with tight junctions between cells.

[4] = substrate: C[N+](C)(C)CC(O)CC(=O)[O-]; experiment: hOCTN2 direct uptake assay (LC-MS-MS, CHO-TREx-hOCTN2 cells); assay type: cell-based, human; conditions: other: CHO-TREx-hOCTN2 cells induced to express hOCTN2, specific uptake
Protocol: as §1, §2

[5] = 2.5 nM 3H-vinblastine, in the presence of 250 μM verapamil

IC50 (hOCTN2 [1]; inhibition of 3H-carnitine uptake, CHO-TREx-hOCTN2 cells induced to express hOCTN2): 6.3 µM | Direct Uptake Vmax (hOCTN2 [3]): 7.7 pmol/min/well
Molecule: C[N+](C)(C)CC(O)CC(=O)[O-] (centres unmarked) [Carnitine, carnitine]
uptake of labeled carnitine with increasing unlabeled carnitine (hOCTN2 [1]; cells induced to express OCTN2, unlabeled carnitine as competitor): uptake of labeled carnitine decreased as the concentration of unlabeled carnitine increased | 3H-carnitine uptake in OCTN2-expressing oocytes versus noninjected controls (hOCTN2 [2]): higher levels of ^3H-carnitine uptake than noninjected controls

apical to basolateral transport (PgP; [5]): strongly increased | basolateral to apical transport (PgP; [5]): strongly decreased | PgP substrate status (PgP; concluded from transport with and without verapamil): substrate of PgP
Molecule: CC[C@]1(O)C[C@@H]2CN(CCc3c([nH]c4ccccc34)[C@@](C(=O)OC)(c3cc4c(cc3OC)N(C)[C@H]3[C@@](O)(C(=O)OC)[C@H](OC(C)=O)[C@]5(CC)C=CCN6CC[C@]43[C@@H]65)C2)C1 [^3H-vinblastine, vinblastine]

B1: hOCTN2 (Homo sapiens) (protein)
chain: T1 sequence (O76082 1-557)
notes: expressed in transfected cells; host or cells: CHO-TREx cells (CHO-TREx-OCTN2 inducible cell line)
Km [4]: 300 µM
